Laboratory results reported in article PMC8922758, “A new therapeutic approach for bone metastasis in colorectal cancer: intratumoral melittin” (The Journal of Venomous Animals and Toxins Including …, 2022).

Legend:
[1] = tested on: HT-29 human colorectal cancer cells; experiment: MTT cytotoxicity assay; assay type: cell-based; settings: 48 h incubation
Procedure: Human CRC (HT-29) was purchased from the European Collection of Authenticated Cell Cultures. It was thawed and propagated in […] flasks at 37 °C in a 5% CO2 humidified chamber (HeraCELL 150) in Dulbecco's modified Eagle's medium (DMEM; Sigma D-5648, São Paulo, Brazil) supplemented with 100 mM sodium pyruvate (Gibco, Thermo Fisher Scientific, Waltham, Massachusetts, USA), 10% fetal bovine serum (FBS) (Gibco, Fisher Scientific, Waltham, Massachusetts, USA), and 1% antibiotics (100 U/mL penicillin and 10 mg/mL streptomycin, Gibco). Cells were detached using 0.25% trypsin-EDTA (Gibco, Fisher Scientific, Waltham, Massachusetts, USA) at 37 °C for 3 min. DMEM plus 10% FBS was used to block the trypsin. The cell pellet was transferred to a new 75 cm^3 flask containing 10 mL DMEM. The culture medium was changed every 24 h. Cell viability was evaluated in the Neubauer chamber using Trypan Blue.
To check the viability, the culture fluid is removed and 5 × 10^5cells per well were treated with melittin (0.0625, 0.125, 0.25, 0.5, 1.0, 2.0, 35 and 70 µM). After 48 h of incubation, MTT (3-(4,5-dimethylthiazol-2-yl)-2,5-diphenyltetrazolium bromide) 0.5 mg/mL was added to each well and incubated at 37 °C for 4 h to determine the number of living cells. […] Then, the optical density was detected by a microplate reader at a wavelength of 540 nm (EPOCH, BioTech Instrument Inc., Winooski, VT, USA). […]

[2] = Mass spectrometry characterisation (aggregation state); assay type: physicochemical; settings: LC-MS, Q-Exactive Plus, C18, before application in the animals
Excerpt: The purity and identity were confirmed by mass spectrometry using a Q-Exactive Plus (Thermo Fisher Scientific, Waltham, Massachusetts, USA). The peptide was inserted into a C18 column (EASY-Spray™ LC Columns, Thermo Fisher Scientific, Waltham, Massachusetts, USA) coupled to a liquid chromatography binary system (EASY-nLC 1,200, Thermo Scientific, Waltham, Massachusetts, USA) and eluted with a gradient of 5%-80% of solvent A (water containing 0.1% formic acid) and B (90% acetonitrile containing 0.1% formic acid) with a constant flow of 100 nL/min. The eluted was automatically inserted in the mass spectrometer, operating in positive mode, in MS mode of a full scan of 300-1500 m/z.

[3] = cited from earlier work
Excerpt: The peptide inhibited approximately 50% of the growth of metastasis. […] In a recent paper melittin could be detected in patients up to 30 days after envenomation, clearly indicating bioaccumulation corroborating the effects of the single-dose treatment. Besides, melittin has the ability to improves sy ...

[4] = tested on: HT-29 CRC bone metastasis xenograft; experiment: Histopathological analysis of the metastasis; assay type: in vivo, Balb/c-nu mice; settings: H&E
Excerpt: After the anesthetic procedure by the parenteral anesthetic drug overdose, the animals were euthanized. The tumor was then resected entirely for anatomopathological analysis. The external surface of the sample was inspected. The opened and cleaned specimens were immersed in formalin overnight for fixation and embedded in paraffin. Metastasis was sliced to assess bone invasion. Tumor 3 µm sections were stained with hematoxylin-eosin and subjected to optical microscopy. Metastasis diagnosis and histological features were determined.

[5] = Animal follow up: signs of toxicity, body weight, organ histopathology; assay type: in vivo, Balb/c-nu mice
Procedure: Signals of suffering and toxicity were carefully observed daily. The following general behaviors were observed: low activity, appetite loss, personality changes, immobility, social isolation, urine and feces consistency changes, lack of personal hygiene, and self-mutilation. Specific to mice, weight loss, dehydration, piloerection, and screams when touched were evaluated.
Moreover, immediately after euthanized, liver, kidneys, and heart were removed from the animals for histopathological analysis, which was conducted with the same method described above.

[6] = tested on: HT-29 CRC bone metastasis xenograft; experiment: Bone metastasis in colorectal cancer mouse model, metastasis volume after intrametastatic injection; assay type: in vivo, Balb/c-nu mice
Procedure: Six-week-old Balb/c-nu male mice (n = 9), weighing 23,76 ± 3,11 g, from Charles River Laboratories International Inc. (Wilmington, USA) were housed in individual ventilated racks. All animals were kept under controlled light conditions (12 h light/12 dark cycles), temperature (23 ± 1 °C), humidity (40%-60%), water, and feed ad libitum.
The procedures were performed in a laminar flow with rigorous asepsis and antisepsis techniques. On day 0, to perform the cell inoculation, mice were anesthetized with xylazine hydrochloride 2% plus ketamine, diluted 1:2 (0.3 mL/20 g), and administered via intramuscular injection. Briefly, cells were suspended in 40 μL of saline. A percutaneous 45° puncture was performed. Bone scarification was performed with the bevel of the hypodermic needle carefully to avoid transfixing the skullcap. Then, without needle exchange, cells (4 × 10^6 cells) were injected over the periosteal in the parietal region using a 1 mL syringe and 36G caliber hypodermic needle.
After xenograft, the animals were monitored daily. Metastasis was verified and measured every day. In case of signs, the animal is euthanized immediately. Metal calipers checked the volume. The growth curves were determined using the formula: Volume = L × S^2/2, where "S" is the smallest diameter measured and "L" is the largest diameter measured.
After the tumor reached 100 mm^3 (by the 19th day after xenograft), the animals were randomized into groups:
After anesthesia, 1,5 mg/kg single dose of melittin was injected in the metastasis with a sterile syringe, as deep as possible, without trespassing the tumor. Without removing the needle, 50 µL of solution was applied slowly for a homogenous distribution into the metastasis, equally distributed (10 µL) in the center and cardinal points. After the administration, the needle remained in the metastasis for 20 seconds before being slowly removed to avoid extravasation.

CC[C@H](C)[C@H](NC(=O)CN)C(=O)NCC(=O)N[C@@H](C)C(=O)N[C@H](C(=O)N[C@@H](CC(C)C)C(=O)N[C@@H](CCCCN)C(=O)N[C@H](C(=O)N[C@@H](CC(C)C)C(=O)N[C@H](C(=O)N[C@H](C(=O)NCC(=O)N[C@@H](CC(C)C)C(=O)N1CCC[C@H]1C(=O)N[C@@H](C)C(=O)N[C@@H](CC(C)C)C(=O)N[C@H](C(=O)N[C@@H](CO)C(=O)N[C@@H](Cc1c[nH]c2ccccc12)C(=O)N[C@H](C(=O)N[C@@H](CCCCN)C(=O)N[C@@H](CCCNC(=N)N)C(=O)N[C@@H](CCCCN)C(=O)N[C@@H](CCCNC(=N)N)C(=O)N[C@@H](CCC(N)=O)C(=O)N[C@@H](CCC(N)=O)C(N)=O)[C@@H](C)CC)[C@@H](C)CC)[C@@H](C)O)[C@@H](C)O)C(C)C)C(C)C [melittin]
maximum inhibition of HT-29 proliferation ([1]; 2 µM, mean of triplicates): 80% | decrease of the initial HT-29 cell number ([1]; 0.0625-70 µM, triplicates): about 20% | aggregation state by mass spectrometry [2]: monomeric structure without aggregation | time melittin is detectable in patients after envenomation [3]: up to 30 days | microscopy of treated metastasis, mitosis rate ([4]; melittin-treated animals n = 6): low mitosis rate | microscopy of treated metastasis, tumor cells ([4]; last experimental day (day 27), n = 6): necrosis and absence of tumor cells | death or severe toxicity signs ([5]; after intrametastatic treatment, 1,5 mg/kg single dose): no death or severe toxicity signs | signs of envenomation ([5]; daily observation after 1,5 mg/kg single intrametastatic dose): did not show signs of envenomation | local reaction at injection site ([5]; day 20, the day after intrametastatic injection of 1,5 mg/kg): local inflammation | histopathological analysis of liver, kidney and heart ([5]; day 27, seven days after single dose, H&E): no signals of toxicity | body weight versus untreated animals ([5]; three days after administration, p < 0.01, n = 6 vs n = 3): greater weight loss than those untreated | inhibition of growing metastasis ([6]; 1,5 mg/kg single intrametastatic dose on day 19, 2 days after the treatment, n = 6 vs untreated n = 3, p < 0.001): approximately 50% | metastasis reduction ([6]; after a single intrametastatic dose, 1,5 mg/kg): 53% | metastasis regrowth ([6]; seven days after single-dose injection): metastases started growing again
